Experimental findings from US8871741B2, “Inhibition of TNF-α induced activation of NFKB by pentosan polysulfate” (Icahn School of Medicine at Mount Sinai, priority 2010, dated 2014) are described below.

One data set has as its system proximal tubular cells. To be noted: for cell death: wild type proximal tubular cells, 24 hours. The protocol:
To determine if CHOP played a role in ER stress induced renal cell death, primary proximal tubular cells were isolated from 2 month-old CHOP^−/− and wild type mice using a method described by Sheridan et al. (Am J Physiol 1993, 265:F342-350). Briefly, kidneys were perfused with a phosphate buffer solution and dynabead M-450 (5×10^5 beads/ml, Invitrogen, LA, CA). Cortices were then cut to small pieces and incubated with 0.1% collagenase and 100 u/ml DNase at 37° C. for 40 minutes. After pressing tissues through a 100 μm cell strainer (BD Biosciences, Bedford, Mass.) with a syringe plunger, glomeruli were removed by a magnetic concentrator. The remaining tissues were collected with a 40 μm cell strainer, washed and cultured with medium containing DMEM/F12 (1:1), 5 μg/ml transferrin, 5 μg/ml insulin, 50 nM hydrocortisone, 5% FBS, 100 u/ml each of penicillin and streptomycin. […] […] 24 hours later, cells were gently washed and stained with trypan blue, the number of live cells from each well was counted.

A further data set concerns podocytes. The data set is described as follows: Albumin permeability of podocyte monolayers (FITC-labeled BSA flux). It is filed as cell-based. To be noted: 2 hours after TNFα treatment (20 ng/ml). The protocol:
1×10^5 podocytes were seeded onto collagen-coated transwell filters ([…] pore-size, Corning, N.Y., N.Y.) placed in the top chamber of each well of a 24-well plate. After cells reached confluence, some wells of cells were treated with TNFα (20 ng/ml), PPS (400 μg/ml), or PPS plus TNFα in 2% FBS medium for 8 hours. Then the medium from both the top and bottom chamber was completely removed, cells were washed twice with PBS and the top chamber was refilled with 0.2 ml 2% FBS medium supplemented with 0.5 mg/ml FITC-labeled BSA (Sigma Aldrich, St Louis, […].), while the bottom chamber was refilled with 0.6 ml 2% FBS medium supplemented with 0.5 mg/ml unlabeled BSA. At different time points, 100 μl aliquots were collected from the bottom chamber and fluorescence was measured by a fluorescence spectrophotometer (485 nm excitation, 535 nm emission). The concentration of FITC-BSA passing through the monolayer was determined by reference to a set of standard dilutions of FITC-BSA. The value of albumin flux through untreated monolayer was arbitrarily defined as 100%.

Data set [1] deals with MCP-1, RANTES, CXCL1, MIP-2, ICAM-1, and iNOS mRNA. The data set can be described thus: TNFα induced pro-inflammatory gene expression in proximal tubular cell line, real-time PCR. It is filed as cell-based, mouse. To be noted: TNFα 10 ng/ml, 4 hours, control defined as 1. The protocol:
A proximal tubular cell line obtained from mice transgenic for SV40 T antigen was grown in DMEM containing 10% FBS. For the measurement of TNFα-stimulated gene expression, 1×10^5 proximal tubular cells were transferred to each well of a 6-well-plate. After placing the cells in 0.1% FBS medium for 24 hours, 10 ng/ml of TNFα was added to test wells. Total RNA was isolated from all wells 4 hours later. MCP-1, RANTES, CXCL1, MIP-2, ICAM-1, and iNOS mRNA levels were determined by real-time PCR as described above and corrected by β-actin mRNA levels. TNFα stimulated MCP-1 and RANTES production and release into the medium was measured in TNFα (10 ng/ml) treated and control cells at 24 hours. The amount of MCP-1 or RANTES in the medium was measured by ELISA (Invitrogen Corporation (Carlsband, Calif.).
To determine the effect of PPS on TNFα induced upregulation of proinflammatory genes, proximal tubular cells were pre-treated with PPS (200 μg/ml) for 1 hour before the addition of TNFα (10 ng/ml). MCP-1, RANTES, CXCL1, MIP-2, ICAM-1, and iNOS mRNA levels were determined 4 hours later by real-time PCR. MCP-1 and RANTES production was also measured.
(In qPCR the cycle at which signal appears reflects the starting amount.)

The next data set has as its system MMP-2. The data set can be described thus: Zymography of U937 cell supernatants, MMP-2. It is filed as cell-based, human. As to conditions: U937 cells, heparin 100 μg/ml. The procedure:
Human pro-monocytic U937 cells were obtained from American Type Culture Collection (Manassas, Va.) and grown in RPMI medium supplemented with 10% FBS. U937 cells were plated in six-well plates at a density of 5×10^6 cells/ml. The cells were then stimulated with 10 ng/ml TNF-α, in the presence or absence of either increasing concentrations of PPS (10-100 μg/ml) or heparin (100 μg/ml), and incubated at 37° C. for 3 hours. Following stimulation, cells were placed in 0.1% BSA-serum-free medium for 16-18 hours. The media was then collected, centrifuged, and supernatants were stored at −80° C. for the assessment of MMP activity. The cell number was determined by direct cell counting.
MMP activity in aortic extracts and conditioned media from monocytes was assessed, as previously described (Jacot T A, et al., Lab Invest. 1996; 75:791-79). Briefly, aortic segments were homogenized and extracted in RIPA buffer (25 mM Tris, pH 7.4, 150 mM KCl, 5 mM EDTA, 1% Nonidet P-40, 0.5% sodium deoxycholate, and 0.1% SDS). Insoluble material was precipitated by centrifugation, and soluble extracts were collected and stored at −20° C. for further analysis. For in vitro experiments, cell supernatants were centrifuged to remove cellular debris, and diluted appropriately to normalize for cell number. Aortic extracts and conditioned media were then mixed with sample buffer (1% SDS, 0.08 M Tris pH 6.8, 4% glycerol, and 0.006% bromophenol blue), and loaded onto a 10% gelatin polyacrylamide gel, and processed as described (Jacot T A, et al., Lab Invest. 1996; 75:791-79). For reverse zymography, samples were loaded onto a 15% gelatin polyacrylamide gel containing 0.5% porcine gelatin and 6 μg recombinant gelatinase A, and processed as described (Elliot S J, et al., J Am Soc Nephrol. 1999; 10: 62-68).

Where two headings read alike, the source gives them in different places.

With `OO` [H2O2, hydrogen peroxide], the apoptotic cell death result with proximal tubular cells is recorded as “dose dependent increase”.

As to TNFα, the “increase in the amount of FITC-labeled albumin that passed through a monolayer of podocytes” value in the data set on podocytes is reported as 34%. Further, the “fold increase in mRNA expression of MCP-1, RANTES, CXCL-1, MIP-2, ICAM-1 and iNOS” value in data set [1] is on record as 2-9 fold.

Regarding heparin, in the data set on MMP-2, the “effect of heparin treatment on MMP-2 activity compared with the PPS effect” value is on record as “comparable”.

For tunicamycin, the apoptotic cell death result with proximal tubular cells (proximal tubular cells exposed to inducers of oxidative stress or ER stress) is on record as “dose dependent increase”. For the same molecule, the cell death with proximal tubular cells (0.6 μg/ml of tunicamycin) is recorded as 38%; in the data set on proximal tubular cells (1.2 μg/ml of tunicamycin), 89%.
